Assay results taken from US10034913B2, “Anti-angiogenic peptides and uses thereof” (Health Research, Inc., priority 2011, dated 2018).
Each block holds one molecule with its values, some of them ahead of it. Bridges are numbered along the chain shown (N, C = ends). Where no end group is shown, it is not given here.

Legend:
[1] = tested on: FAK gene expression in HUVEC; test: FAK gene expression in HUVEC, Real-time QPCR; assay type: cell-based, human; details: 10 uM, average of three experiments
Description: FIG. 16 is a graphical representation of data showing modulation of FAK gene expression in HUVEC by f-PSA and PSA-P3L. To produce the results summarized in FIG. 16, nearly confluent monolayers of HUVEC were treated with 10 uM of f-PSA or PSA-P3L; RNA extracted and reverse transcribed. The c-DNA was amplified by Real-time QPCR using specific primers. The results shown are the average of three experiments. […] The other experimental details are similar to all gene expression studies. Thus, in one embodiment, the invention provides a method for inhibiting FAK gene expression in human endothelial cells comprising contacting the cells with one or more peptides of the invention.

[2] = tested on: VEGF gene expression in HUVEC; test: VEGF gene expression in HUVEC, Real-time QPCR; assay type: cell-based, human; details: 10 uM, average of three experiments
Description: FIG. 17 is a graphical representation of data showing modulation of VEGF gene expression in HUVEC by f-PSA, PSA-P3L and PSA-P3C. To produce the results summarized in FIG. 17, nearly confluent monolayers of HUVEC were treated with 10 uM of f-PSA or PSA-P3L; RNA extracted and reverse transcribed. The c-DNA was amplified by Real-time QPCR using specific primers. The results shown are average of three experiments. […] The data represents an average of three experiments. […] Thus, in one embodiment, the invention provides a method for inhibiting VEGF expression in human endothelial cells comprising contacting the cells with one or more peptides of the invention.

HUVEC = test: Matrigel endothelial tube formation assay; assay type: cell-based, human; details: for anti-angiogenic activity, inhibition of tube formation by HUVEC in Matrigel: 10 uM, 18 hr, FIGS. 14, 19, 20; for inhibitory activity on endothelial tube formation: equi-molar concentrations of f-PSA and T-PSA; for reproducible anti-angiogenic activity: tested at 10 and 100 μM
Excerpt: The 3-D model of human PSA, the amino acid sequence of the initial five candidate peptides, and their color-coded location on the exterior of the PSA protein molecule in aqueous solution, are presented in FIG. 8. Five PSA-mimetic peptides with >90% purity were acquired from GeneScript Corporation, Piscataway, N.J., and tested for anti-angiogenic activity against HUVECs in the Matrigel tube formation assay with intact PSA as the control (FIGS. 9 &10). Briefly, to perform these assays, 10^4 HUVEC cells are mixed with the PSA mimetic peptide, and, the mixture placed on top of a solidified, pre-poured Matrigel layer in a flat bottomed well of a multi-chambered plate, and the culture incubated for 16-18 hr to allow time for the endothelial cells to migrate and form tubular structures. At the conclusion of the incubation, digital images were made from the center of each culture to avoid bias, and 3-4 wells for each test condition were imaged. The images are processed under the Analyze 7.0 and “Angioquant” software packages, for imaging and quantification. The total length of tubular structures in the image is determined, and averaged over the replicate cultures. This method of quantification allows for accurate, unbiased measurement of tube lengths. Peptides having each of the peptide sequences shown in FIG. 8 are encompassed within the scope of the invention, including all modifications and substitutions to the sequences as described supra.
The experimental endpoint, measured by digital image analysis, is the total area of the image comprised of endothelial cells (tubes). […] While the reason for the decrease in the amount of anti-angiogenic activity in this figure when the concentration of the peptides is increased from 10 to 100 μM is not clear, it may be related to a dosing response observed in this case. […] FIG. 10 presents the evaluation of anti-angiogenic activity for peptides #1 and #3 relative to the level of inhibition by native PSA, averaged over multiple experiments with different parental populations of HUVEC cells. Across multiple sets of experiments, both peptides inhibited the angiogenic activity of HUVEC by 35-40% relative to native PSA.
FIG. 13 is a graphical representation of data showing anti-angiogenic activity of f-PSA, PSA-P3L, and PSA-P3C by inhibiting tube formation by HUVEC in a Matrigel assay. To produce the results summarized in FIG. 13, a 24-well tissue culture plate was coated with 200 ul/well of Matrigel and incubated for 30 min at 37 C. Approximately 80,000 HUVEC in 0.5 ml of media supplemented with f-PSA or PSA-P3L, PSA-P3C was applied on top of the Matrigel layer and cells were incubated for 18 hr at 37 C foe endothelial cell tube formation. Live cell images (4× magnification) were taken using Nikon Eclipse TE300 inverted microscope system and analyzed using Spot Advance software program. Five images were taken/well. The images were processed further using Analyze 7.0 (AnalyzeDirect, Inc., Overland Park, Kans.) and Angioquant v1.33 to obtain the average tube length for each image. Percent inhibition is expressed in relation to tube length in untreated control cells.

[3] = tested on: ANG2 gene expression in HUVEC; test: ANG2 gene expression in HUVEC, Real-time QPCR; assay type: cell-based, human; details: 10 uM, average of three experiments
Description: FIG. 18 is a graphical representation of data showing modulation of ANG2 gene expression in HUVEC by f-PSA, PSA-P31 and PSA-P3C. To produce the results summarized in FIG. 18, nearly confluent monolayers of HUVEC were treated with 10 uM of f-PSA, PSA-P3L or PSA-P3C; RNA extracted and reverse transcribed. The c-DNA was amplified by Real-time QPCR using specific primer. The results shown are an average of three experiments. […] Accordingly, in one embodiment, the invention provides a method for inhibiting ANG2 expression in human endothelial cells comprising contacting the cells with one or more peptides of the invention.

HUVEC cells = test: Expression of angiogenesis/vasculogenesis genes in HUVEC, enzymatically active vs inactive PSA; assay type: cell-based, human
Description: (§1) Enzymatically active PSA, and PSA inactivated by incubation with Zinc^2+ [activity inhibited>75% by 5.0 μM of Zinc, inset FIG. 4] were compared for their respective effects on expression of genes involved in angiogenesis/vasculogenesis in HUVEC cells.

PC-3M xenografts = test: Growth of PC-3M xenografts in nude mice; assay type: in vivo; details: PSA administered in the tumor vicinity; control animals 267 mm^3
Excerpt: (§2) PSA purified to homogeneity from human seminal plasma is enzymatically active, and free of contaminating hk2, and complexes with carrier proteins/chaperones (Bindukumar, B., et al., J Chromatogr B Analyt Technol Biomed Life Sci, 2004. 813(1-2): p. 113-20).

[4] = tested on: FLT1 gene expression in HUVEC; test: FLT1 gene expression in HUVEC, Real-time QPCR; assay type: cell-based, human; details: 10 uM, average of three experiments
Description: FIG. 15 is a graphical representation of data showing modulation of FLT1 gene expression in HUVEC by f-PSA and PSA-P31. […] To obtain the data summarized in this figure, nearly confluent monolayers of HUVEC were treated with 10 uM of f-PSA or PSA-P3L; RNA extracted and reverse transcribed. The c-DNA was amplified by Real-time QPCR using specific primer. The results shown are average of three experiments.

PC-3M cells [5] = test: Proteomic profiling (2D-DIGE, HPLC-MS/MS) of PC-3M cells treated with PSA; assay type: cell-based, human; details: PSA treatment
Excerpt: This Example provides an illustration of proteomic profiling of the effect of PSA on human prostate cancer cells. In this regard, a proteomic approach was employed to identify proteins whose expression was modulated in PC-3M cells treated with PSA. […] Proteins from 26 gel spots were identified [FIG. 2]. […] Specificity of PSA modulation of differential expression of these genes in PC-3M cells was validated at the gene level by RT-QPCR [FIG. 3].

PC-3M cells [6] = details: cited from earlier work
[7] = target: T1, Mu-His-Ser-Ser-Lys-Leu-Gln—AFC (Homo sapiens, UniProt P07288); test: Enzymatic activity of isolated PSA, hydrolysis of fluorogenic substrate; assay type: biochemical; details: for enzymatic activity in the assay: fluorogenic substrate hydrolysis
T1 construct: The 237 amino acid protein (25-261) were used in the studies that include PSA as described herein; from tissue; host or cells: human seminal plasma (f-PSA); human prostate cancer tissue specimens (T-PSA)
Description: In particular, enzymatic activity of PSA isolated from human seminal plasma (f-PSA) and from human prostate cancer tissue specimens (Tissue-PSA: T-PSA) was evaluated routinely using a substrate (Mu-His-Ser-Ser-Lys-Leu-Gln—AFC) (SEQ ID NO:102) (Calbiochem) that is highly specific for PSA. […] PSA in the tissue microenvironment (T-PSA) is largely free and enzymatically active. T-PSA levels are lower in advanced prostate cancer than benign prostate, and T-PSA levels correlate with prognosis in prostate cancer, as well as in breast cancer; the higher the T-PSA level, the better the prognosis.
(§3) Hydrolysis of the fluorogenic substrate was quantitated using a LS-45 Luminescence Spectrometer from Perkin Elmer) using the FL-Winlab® program. Human prostate cancer tissue specimens were obtained from the Pathology Resource Network at Roswell Park Cancer Institute under an IRB approved protocol.

PC-3M cells [8] = test: Gene expression array and QPCR analysis of PC-3M cells treated with PSA; assay type: cell-based, human
Excerpt: as §2

PSA = target: T2, PSA (Homo sapiens, UniProt P07288); test: Inhibition of PSA enzymatic activity by zinc; assay type: biochemical
T2 construct: The 237 amino acid protein (25-261) were used in the studies that include PSA as described herein; from tissue; host or cells: human seminal plasma (f-PSA); human prostate cancer tissue specimens (T-PSA)
Description: as §3, §1

[9] = PC-3M cells versus LNCaP cells treated with 10 μM PSA

T1 sequence (P07288 25-261): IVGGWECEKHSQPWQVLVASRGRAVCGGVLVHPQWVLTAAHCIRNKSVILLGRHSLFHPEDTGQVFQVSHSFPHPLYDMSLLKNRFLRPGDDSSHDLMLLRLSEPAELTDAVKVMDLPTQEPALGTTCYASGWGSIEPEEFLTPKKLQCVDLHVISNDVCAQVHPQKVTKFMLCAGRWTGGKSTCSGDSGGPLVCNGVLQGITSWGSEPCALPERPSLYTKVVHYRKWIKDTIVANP
T2 sequence (P07288 25-261): as above

Molecule: Asn Asp Val Cys Ala Gln Val His Pro Gln Lys Val Thr Lys Phe Met Leu Cys Ala (Ac-NDVCAQVHPQKVTKFMLCA-NH2; disulfide 4-18 (inferred)) [PSA-P3C]
- FAK gene expression [1]: significantly down-regulates
- VEGF gene expression [2]: significantly down-regulate
- inhibition of HUVEC tube formation, cyclic versus linear peptide (HUVEC; at certain concentrations, FIG. 11): even more efficiently than linear peptide
- ANG2 gene expression [3]: significantly inhibited

Molecule: PSA inactivated by incubation with Zinc^2+: PSA enzymatically inactivated by incubation with Zinc2+ (5.0 μM)
- expression of blood vessel development genes FAK, FLT, KDR, TWIST1, Cathepsin D and P-38 (HUVEC cells): equally effective
- negative modulation of expression of pro-angiogenic growth factors bFGF and VEGF (HUVEC cells): equally effective
- positive modulation of expression of IFN-γ (HUVEC cells): equally effective
- inhibition of tube formation compared with native PSA (HUVEC; over the entire range of PSA concentrations studied): as inhibitory of tube formation as was native PSA

Molecule: PSA-ACT Complex: f-PSA complexed with serine protease inhibitor alpha 1 anti-chymotrypsin (ACT)
- anti-angiogenic activity, inhibition of tube formation by HUVEC in Matrigel (HUVEC): significant loss of anti-angiogenic activity
- anti-angiogenic activity, inhibition of tube formation by HUVEC in Matrigel (HUVEC; listed as PSA-ACT complexes): significantly reduced

Molecule: f-PSA: PSA isolated from human seminal plasma, free and enzymatically active; 237 amino acid protein (residues 25-261)
- mean tumor volume (PC-3M xenografts): 13 mm^3
- expression of blood vessel development genes FAK, FLT, KDR, TWIST1, Cathepsin D and P-38 (HUVEC cells): equally effective
- negative modulation of expression of pro-angiogenic growth factors bFGF and VEGF (HUVEC cells): equally effective
- positive modulation of expression of IFN-γ (HUVEC cells): equally effective
- FAK gene expression [1]: significantly down-regulates
- FLT1 gene expression [4]: effectively inhibit
- proteins significantly changed (p<0.05) in abundance (PC-3M cells [5]): 41
- VEGF gene expression [2]: significantly down-regulate
- effect on VEGF and IFN-γ gene expression and protein release (PC-3M cells [6]): distinctly dose dependent
- anti-angiogenic activity, inhibition of tube formation by HUVEC in Matrigel (HUVEC): significant anti-angiogenic activity
- anti-angiogenic activity, inhibition of tube formation by HUVEC in Matrigel (HUVEC; listed as PSA): significantly inhibit
- inhibitory activity on endothelial tube formation (HUVEC): equivalent inhibitory activity
- enzymatic activity in the assay [7]: demonstrated enzymatic activity
- genes down-regulated (gene expression array) (PC-3M cells [8]; [9]): 137
- genes up-regulated (gene expression array) (PC-3M cells [8]; [9]): 136
- expression of IFN-γ and interferon related genes incl. 2,5 oligo-adenylated synthetase-2 (QPCR) (PC-3M cells [8]; PC-3M cells, 10 μM PSA): up-regulated
- expression of uPA, VEGF, cysteine-rich angiogenic inducer-61, EphA2, TGF-β2 (QPCR) (PC-3M cells [8]; PC-3M cells, 10 μM PSA): significantly down-regulated
- ANG2 gene expression [3]: significantly inhibited

- enzymatic activity relative to f-PSA from seminal plasma ([7]; per microgram of protein): roughly 50%
Molecule: T-PSA: PSA isolated from human prostate cancer tissue specimens
- inhibitory activity on endothelial tube formation (HUVEC): equivalent inhibitory activity
- enzymatic activity in the assay [7]: demonstrated enzymatic activity

Molecule: GRWTGGKSTCS [Peptide #4]
- reproducible anti-angiogenic activity (HUVEC): did not demonstrate reproducible anti-angiogenic activity

Molecule: NDVAAQVHPQKVTKFMLAA [PSA-P3L]
- FAK gene expression [1]: not significantly different
- FLT1 gene expression [4]: effectively inhibit
- VEGF gene expression [2]: not significantly different from control
- anti-angiogenic activity, inhibition of tube formation by HUVEC in Matrigel (HUVEC): significantly inhibit
- ANG2 gene expression [3]: not significantly different from control

Molecule: [Cl-].[Cl-].[Zn+2] [zinc chloride]
- PSA activity inhibited (PSA; 5.0 μM of Zinc): > 75%
- inhibition of enzymatic activity of f-PSA and T-PSA (PSA; pre-incubation with zinc chloride 5 μM): inhibited completely

Molecule: SEPCALPERPS [Peptide #5]
- reproducible anti-angiogenic activity (HUVEC): did not demonstrate reproducible anti-angiogenic activity

Molecule: GWGSIEPEEFLTPKKLQ [Peptide #2]
- reproducible anti-angiogenic activity (HUVEC): did not demonstrate reproducible anti-angiogenic activity

Molecule: KNRFLRPGDDSSH [Peptide #1, amino acids 107-119 of PSA]
- anti-angiogenic activity, inhibition of tube formation by HUVEC in Matrigel (HUVEC): significantly inhibit
- inhibition of tubule formation (HUVEC; 100 μM, FIG. 9): maximal inhibition
